Results: PMC4912613, “A broad analysis of resistance development in the malaria parasite” (Nature Communications, 2016)

Experiments:
[1] = system: P. falciparum 3D7, Dd2, Dd2Δexo; test: In vitro evolution of compound-resistant lines (selection); format: cell-based, Plasmodium falciparum; conditions: for Time Length to Obtain Mutants: in vitro selection; for # of Resistant Strains Generated: resistant cultures out of three independent cultures; for EC50 fold shifts observed: selected parasites vs selection parent
Description: While we found an overall lack of pre-existing resistance, analysing the onset of resistance was critical, as compounds resulting in rapid resistance are not ideal for clinical development. We therefore sought to create drug-resistant parasites using a variety of different selection methods. We implemented either a high-dose method or a ramp-up/pulse method for our in vitro selections. Two of the 50 compounds—MMV028895 and MMV665824—were removed from the selection study during experimentation. […] Out of the remaining 48 compounds, resistant parasites were obtained for 23 (Supplementary Data 1). As each selection was performed in triplicate with three independent cultures, we succeeded in generating a total of 66 resistant cultures. Parasites resistant to MMV026596 were not obtained despite 100 days of selection, but the cultures acquired hypersensitivity to mefloquine with a 10-fold reduction in EC50 compared with its parental line, 3D7. For the remaining 24 compounds, acquisition of resistant parasites was unsuccessful despite numerous attempts over an extensive period of time.
Based on the compound speed of action and lab specialty, selections were conducted using a high-pressure intermittent selection method, a step-wise selection method, or a constant selection method. For high-pressure selections, ∼1–2 × 10^9 parasites were treated at a concentration of 3–10 × EC50 until parasites could not be seen by microscopy (4–10 days). Following treatment, compound pressure was removed and cultures were allowed to recover. Once healthy parasites were seen and parasitemia reached ∼2%, compound pressure was reinstated. For step-wise selections, ∼1 × 10^8 parasites were treated at a starting concentration resulting in a reduced growth rate of 50%. Cultures were examined daily by microscopy, increasing compound concentration in increments of 5–10% as needed to maintain a 50% reduced growth rate. Selections were carried out until cultures achieved a reproducible EC50 fold shift of >3 × . Finally, constant selections were conducted in a similar manner to the high-pressure intermittent method with the exception that compound pressure was never removed. Following successful selection, cultures were cloned out using a limiting dilution method as previously described. Selections were terminated after 200 days if resistance could not be obtained.

[2] = system: HepG2; test: Hepatocyte toxicity; format: cell-based, human; conditions: for Hepatocyte Toxicity: HepG2; for EC50 fold shift compared to asexual stage: Hepatocyte Toxicity: hepatocyte toxicity / 3D7 EC50; for Liver Stage / Hepatocyte Toxicity: toxicity fold shift for the liver stage (hepatocyte toxicity vs liver stage EC50)
Description: As drugs that eliminate multiple stages of the parasite lifecycle will be critical components in global efforts to eliminate malaria, we were interested in knowing whether the compounds in our study had additional activities against either the liver and/or transmission stages of the parasite lifecycle. To determine this, we first evaluated the compounds in additional phenotypic assays. The first assay was a P. berghei hepatocyte invasion and development assay, which predicts causal prophylactic activity. Hepatocyte toxicity was additionally tested to identify false-positive activity in the liver stage due to host-cell toxicity. Assays were executed in duplicate using a 12-point EC50 curve at starting concentrations of 5 μM or 50 μM (Supplementary Table 1).
Liver-stage activity was determined by pretreating hepatic human cells (HepG2) for 2 h with compound in 1,536-well plates infected with freshly dissected P. berghei sporozoites. After 48 h of incubation, the viability of P. berghei exoerythrocytic forms was measured by luminescence reaction light output using BrightGlo (Promega). Varying levels of compound concentration were used (5 μM or 50 μM) due to the stock concentration supplied.

[3] = system: ProRS (prolyl t-RNA synthetase L482H, parent Dd2); test: Cross-resistance EC50 assay, ProRS; format: cell-based; conditions: Plasmodium falciparum, SYBR green 72 hour assay, synchronized parasites, 384-well format
Description: (§1) To evaluate potential overlapping activity against known antimalarial drug targets, we performed dose-response studies with each compound against our assembled set of drug-resistant lines and their corresponding parents, in an asexual blood stage proliferation assay (Table 1). Comparisons were made to the drug-sensitive strain 3D7 when a parent was unavailable (TM90C2A, W2 and Dd2). As laboratories conducted EC50 assays with different strains and protocols, all comparisons were made between assays from the same laboratory and under the same assay conditions. Compounds displaying >5-fold EC50 shifts relative to the parent or sensitive strain were flagged as having potentially non-novel targets. Average fold shifts per strain ranged from 0.82 to 2.34, with a median of 1.23 indicating there was not common resistance to any one resistant clone. No resistance patterns were observed when classifying the compounds based on chemical structure, but this was not surprising given the diversity of compounds chosen. On the other hand, given that these confirmed compounds were derived from larger unconfirmed hit lists to which some filtration criteria may have been applied (for example, elimination of obvious dihydrofolate reductase inhibitors[32]), some[10][11][12][13] pre-existing bias may exist in the set. […]
(§2) Alternatively, a SYBR Green-based proliferation approach was used for the 72-h assay, as previously described. Briefly, a culture of either synchronized or asynchronous parasitized RBCs (0.3% parasitemia and 4% haematocrit) in screening medium (identical to supplemented medium above except no serum was added) was exposed to serial drug dilutions. Plates were incubated at 37 °C and gassed with 93% N2, 4% CO2 and 3% O2 for 72 h. Following incubation, 10 × SYBR Green I (Invitrogen; supplied in 10,000 × concentration) in lysis buffer ([…], 5 mM EDTA, 0.16% Saponin wt per vol and 1.6% Triton X vol per vol) was added to the wells and the plates were incubated overnight at room temperature before plate reading. EC50 assays were repeated three times, taking the average EC50 value from each assay set, and removing any outliers using a single iteration of Grubbs' test, eliminating values with z-scores above the critical z-value (α=0.05). The raw EC50 values for synchronized parasites assayed in a 384-well format are listed in Supplementary Data 4. The raw EC50 values for asynchronous parasites assayed in a 96 or 1536-well format are listed in Supplementary Data 5.
(§3) EC50 values for each strain were compared with those of the corresponding parent strain to determine fold-shift changes and identify resistance. To minimize the cause variance between assays, all comparisons were conducted between strains assayed under identical conditions. A one-way ANOVA followed by a Dunnet's post-test was conducted in GraphPad Prism to identify significant changes between the parent and resistant strain.

[4] = system: hsp90 (D88Y, parent Dd2); test: Cross-resistance EC50 assay, hsp90; format: cell-based; conditions: Plasmodium falciparum, SYBR green 72 hour assay, synchronized parasites, 384-well format
Description: as §1, §2, §3

Row | SMILES | Time Length to Obtain Mutants [1] | # of Resistant Strains Generated [1] | EC50 fold shifts observed [1] | Hepatocyte Toxicity [2] [µM] | EC50 fold shift compared to asexual stage: Hepatocyte Toxicity [2] | Liver Stage / Hepatocyte Toxicity [2] | EC50 ([3]; strain ProRS (Dd2 parent)) [nM] | EC50 ([4]; strain HSP90 (Dd2 parent)) [nM] | EC50 ([3]; DD2, ProRS strain) [nM] | EC50 ([4]; DD2, HSP90 strain) [nM]
1 | CCN(CC)CCn1c(=N)n(CC(O)c2ccc(Cl)c(Cl)c2)c2ccccc21.Cl (stereo not drawn) [MMV000248] | LONG (> 125 days) | 0/3 | no shift | 20.64 | 67.45 | 3.72 | 360 | 328 |  | 
2 | Cc1cc(Nc2ccc(OCc3ccccc3)cc2)nc2cc(O)ccc12 [MMV007181] | LONG (> 125 days) | 0/3 | no shift | 7.952 | 22.98 | 1.66 | 105 | 120 |  | 
3 | CN(C)Cc1ccc(-c2cc3c(-c4ccc(CN(C)C)cc4)ccnc3[nH]2)cc1.O=C(O)C(F)(F)F [MMV022224] | LONG (> 125 days) | 0/3 | no shift | 2.32 |  | 2.90 | 294 | 346 |  | 
4 | CN1CCN(c2ccc(Nc3c4ccccc4nc4ccccc34)cc2)CC1 [MMV006172] | LONG (> 125 days) | 0/3 | no shift | 4.554 |  | 2.21 | 125 | 139 |  | 
5 | Nc1ccc(-c2nc3cc(Cc4ccc5[nH]c(-c6ccc(N)cc6)nc5c4)ccc3[nH]2)cc1 [MMV665943] | SHORT (0-50 days) | 0/3 | no shift | 14.29 | 45.22 | 2.40 | 416 | 425 |  | 
6 | c1cc(-c2cnc3ccc(-c4ccc(N5CCOCC5)cc4)nn23)ccn1 [MMV668311] | LONG (> 125 days) | 0/3 | no shift | 5.119 | 106.65 | 2.27 | 62 |  |  | 
7 | OC(CNC1CCCCC1)Cn1c2ccccc2c2ccccc21 (stereo not drawn) [MMV009063] | LONG (> 125 days) | 3/3 | 1.9-3.4x | > 5 | > 6.3 |  | 144 | 286 |  | 
8 | O=C(Nc1ccc(Cl)c(Cl)c1)Nc1ccc(Cl)c(Cl)c1 [MMV665852] | LONG (> 125 days) | 0/3 | no shift | 2.594 |  | 7.56 | 716 | 893 |  | 
9 | Nc1ccc(-c2nc3cc(Oc4ccc(Oc5ccc6[nH]c(-c7ccc(N)cc7)nc6c5)cc4)ccc3[nH]2)cc1 [MMV011895] | LONG (> 125 days) | 2/3 | 2-4x | > 50 | > 300 |  | 232 | 311 |  | 
10 | COc1ccc(NC(=O)N2CCCCN3[C@H](CN)[C@H](c4ccc(C#Cc5ccccc5)cc4)[C@@H]3C2)cc1 [BRD1095] | SHORT (0-50 days) | 3/3 | 4-100x | > 50 | > 1250 | > 605 |  |  | 17 | 17
11 | CCCN(CCC)CC(O)COc1ccccc1C(=O)Nc1ccccc1 (stereo not drawn) [MMV006455] | LONG (> 125 days) | 0/3 | no shift | > 5 | > 9.4 |  | 897 | 2060 |  | 
12 | COCCNCC(O)Cn1c2ccc(Cl)cc2c2cc(Cl)ccc21 (stereo not drawn) [MMV019017] | LONG (> 125 days) | 0/3 | no shift | > 5 | > 10 |  | 340 | 614 |  | 
13 | Cc1c(C)n(Cc2ccc(F)cc2)c2ccc(C(=O)NCc3ccco3)cc12 [MMV008149] | SHORT (0-50 days) | 3/3 |  | > 5 | > 6.5 | > 5.6 | 67 | 191 |  | 
14 | COc1ccc2c3c([nH]c2c1)[C@H](CO)N(C(C)=O)CC31CCN(C(=O)Nc2ccccc2F)CC1 [MMV673482] | SHORT (0-50 days) | 2/3 | 7-18x |  |  |  |  |  | 94 | 94
15 | Cc1nc2ccc3ccc(CNc4ccc(C(=O)CC(CCC(=O)O)C(=O)O)cc4)cc3c2c(=O)[nH]1.Cl (stereo not drawn) [MMV027634] | SHORT (0-50 days) | 3/3 | >15x | 11.61 | 504.78 |  |  | 39 |  | 
16 | CN(C)CCCN(C)C(=O)C1Cc2cc(-c3ccccc3)ccc2N1S(=O)(=O)c1ccccc1 (stereo not drawn) [MMV028895] |  |  |  |  |  |  | 371 | 332 |  | 
17 | c1cncc(-c2cc(N3CCC(CN4CCOCC4)CC3)nc(-c3ccncc3)n2)c1 [MMV668399] | LONG (> 125 days) | 3/3 | 2-4x | > 50 |  | > 7 |  | 90 |  | 
